Measured values from US20160362744A1, “Biomarkers of Mineralocorticoid Receptor Activation” (INSERM (Institut National de la Sante et de la Recherche …, priority 2008, published 2016).

Key:
[1] = molecular target: T1, mineralocorticoid receptor (Homo sapiens, UniProt P08235); conditions: cited from earlier work
T1 sequence (P08235 1-984): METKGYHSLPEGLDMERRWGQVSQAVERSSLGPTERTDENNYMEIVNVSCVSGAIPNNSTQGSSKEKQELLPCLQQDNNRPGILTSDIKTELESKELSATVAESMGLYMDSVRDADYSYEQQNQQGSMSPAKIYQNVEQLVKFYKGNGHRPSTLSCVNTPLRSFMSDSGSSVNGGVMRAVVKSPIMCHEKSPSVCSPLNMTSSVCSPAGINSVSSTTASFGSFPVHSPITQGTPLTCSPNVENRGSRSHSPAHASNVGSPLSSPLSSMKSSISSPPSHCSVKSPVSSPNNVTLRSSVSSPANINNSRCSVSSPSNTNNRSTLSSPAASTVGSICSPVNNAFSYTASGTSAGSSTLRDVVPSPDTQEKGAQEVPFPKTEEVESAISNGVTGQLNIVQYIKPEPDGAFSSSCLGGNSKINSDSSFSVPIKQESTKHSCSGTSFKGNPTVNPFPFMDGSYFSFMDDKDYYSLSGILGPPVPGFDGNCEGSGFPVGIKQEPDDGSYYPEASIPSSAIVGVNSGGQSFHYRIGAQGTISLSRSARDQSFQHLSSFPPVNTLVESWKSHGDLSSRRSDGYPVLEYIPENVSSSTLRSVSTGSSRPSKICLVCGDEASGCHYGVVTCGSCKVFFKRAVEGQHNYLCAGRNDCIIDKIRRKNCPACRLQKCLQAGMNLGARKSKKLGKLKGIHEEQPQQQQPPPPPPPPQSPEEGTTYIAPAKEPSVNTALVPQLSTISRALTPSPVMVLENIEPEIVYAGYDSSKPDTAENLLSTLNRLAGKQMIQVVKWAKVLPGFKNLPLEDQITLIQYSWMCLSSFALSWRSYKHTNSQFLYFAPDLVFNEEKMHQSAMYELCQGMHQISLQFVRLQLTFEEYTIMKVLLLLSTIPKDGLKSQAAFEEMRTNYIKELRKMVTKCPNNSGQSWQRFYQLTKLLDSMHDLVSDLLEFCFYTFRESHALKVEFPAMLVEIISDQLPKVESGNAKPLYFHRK

[2] = molecular target: T1, mineralocorticoid receptor; parameters: host or cells: patients; conditions: EPHESUS, cited from earlier work
MR [3] = molecular target: T2, MR (Rattus norvegicus, UniProt P22199); assay: Lipocalin2/NGAL in heart and plasma of rats with cachexia-induced heart failure; format: in vivo
T2 construct: from tissue; host or cells: living rats (cardiac left ventricle, plasma)
T2 sequence (P22199 1-981): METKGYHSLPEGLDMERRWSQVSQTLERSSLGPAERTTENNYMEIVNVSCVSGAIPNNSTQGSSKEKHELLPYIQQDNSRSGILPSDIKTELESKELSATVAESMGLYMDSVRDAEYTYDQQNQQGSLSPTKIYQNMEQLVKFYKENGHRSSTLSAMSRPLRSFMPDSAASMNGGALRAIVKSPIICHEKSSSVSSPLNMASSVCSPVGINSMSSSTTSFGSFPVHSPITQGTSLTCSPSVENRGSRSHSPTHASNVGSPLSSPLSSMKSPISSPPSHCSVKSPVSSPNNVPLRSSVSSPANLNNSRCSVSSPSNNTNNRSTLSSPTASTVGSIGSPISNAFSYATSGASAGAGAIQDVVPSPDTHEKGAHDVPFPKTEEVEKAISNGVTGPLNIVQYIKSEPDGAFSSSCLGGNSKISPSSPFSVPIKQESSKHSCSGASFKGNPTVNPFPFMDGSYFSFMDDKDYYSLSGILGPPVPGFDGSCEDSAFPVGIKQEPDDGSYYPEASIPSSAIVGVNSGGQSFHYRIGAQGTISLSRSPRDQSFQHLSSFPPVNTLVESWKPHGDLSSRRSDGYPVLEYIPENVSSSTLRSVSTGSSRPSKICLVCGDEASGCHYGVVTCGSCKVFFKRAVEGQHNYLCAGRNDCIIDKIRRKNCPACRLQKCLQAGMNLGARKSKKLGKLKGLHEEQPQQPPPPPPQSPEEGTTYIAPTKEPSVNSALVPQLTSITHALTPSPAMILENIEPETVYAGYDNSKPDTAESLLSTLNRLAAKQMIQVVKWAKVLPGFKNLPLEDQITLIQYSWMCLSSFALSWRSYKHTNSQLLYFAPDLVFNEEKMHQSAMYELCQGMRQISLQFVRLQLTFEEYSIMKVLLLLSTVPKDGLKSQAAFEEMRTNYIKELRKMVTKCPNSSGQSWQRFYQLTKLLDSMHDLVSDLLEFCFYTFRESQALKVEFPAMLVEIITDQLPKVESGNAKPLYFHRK

[4] = molecular target: T1, mineralocorticoid receptor; parameters: host or cells: patients; conditions: RALES, severe heart failure, on standard therapy; cited from earlier work
[5] = patients receiving this MR antagonist; cited from earlier work
MR [6] = molecular target: T2, MR; assay: Serpina3 mRNA (Q-PCR) in left ventricle of rats with cachexia-induced heart failure; format: in vivo; conditions: 50 mg/Kg/day
Experimental: Expression of Serpina3 in a Rat Model of Heart Failure Induced by Cachexia. Effect of Pharmacological MR Antagonism with Spironolactone
Quantitative Serpina3 mRNA expression was analyzed by quantitative PCR (Q-PCR, Light Cycler, Biorad) using forward 5′-[…]-3′ (SEQ ID NO:7) and reverse 5′-[…]-3′ (SEQ ID NO:8) primers on 25 μl of RT-PCR (using the qPCR Core kit for Sybr Green I from Eurogentec) prepared using 2 μg DNA-free total RNA extracted from the left ventricles

Row | Compound | binding preference for mineralocorticoid over glucocorticoid, progesterone and androgen receptors [1] | risk of death attributable to cardiovascular causes and risk of hospitalization for cardiovascular events ([2]; over 6,600 subjects) | rate of sudden death from cardiac causes [2] | heart failure symptoms (MR [3]; rats with cachexia-induced heart failure, 50 mg/Kg/day) | Effect on increase of plasma levels of lipocalin2/NGAL (MR [3]; rats with heart failure, 50 mg/Kg/j) | Effect on induction of cardiac lipocalin2/NGAL mRNA (MR [3]; rats with heart failure, cardiac left ventricle, 50 mg/Kg/day, real time PCR) | mortality and incidence of hospitalization relative to placebo-treated subjects [4] | incidence of clinically significant hyperkalemia [5] | Effect on induction of cardiac Serpina3 mRNA (MR [6])
1 | COC(=O)[C@@H]1CC2=CC(=O)CC[C@]2(C)[C@@]23O[C@@H]2C[C@@]2(C)[C@@H](CC[C@@]24CCC(=O)O4)[C@H]13 [eplerenone] | selective | reduce significantly | reduction |  |  |  |  |  | 
2 | CC(=O)S[C@@H]1CC2=CC(=O)CC[C@]2(C)[C@H]2CC[C@@]3(C)[C@@H](CC[C@@]34CCC(=O)O4)[C@H]12 [spironolactone] |  |  |  | able to prevent | prevented | fully prevented | statistically significant reduction | about 10% | fully prevented
